Legend:
[1] = target: T1, Akt1 (Homo sapiens, UniProt P31749); test: AKT1/PKBα KinEASE FP Fluorescein Green Assay (fluorescence polarization kinase kit); format: biochemical; settings: 1 h reaction, read-out: Inhibitory activities against Akt1 (IC50)
T1 construct: purchased 32-021
Experimental: Second, method for determining the inhibitory activities of substituted nitrogen-containing heterocyclic derivatives in the present invention against Akt1 enzyme:
The inhibitory activities of compounds against AKT1/PKBα are determined by using AKT1/PKBα KinEASE™ FP Fluorescein Green Assay (Green fluorescence detection system of Kinase).
Principle adopted by the fluorescence polarization detection of protein kinase B is a competitive reaction: the phosphorylated tracers labeled with fluorescence will compete with unlabeled phosphorylated products produced by reacting with protein kinase B to combine anti-serine antibodies. […] However, in the reaction mixture containing phosphorylated products, fewer tracers will combine with antibodies (fluorescent tracers are replaced from the antibodies), and signals sent our occur depolarizing. Therefore, the change of polarization is directly related to the activity of protein kinase B in the reaction.
Each of 0.25 μl of compounds with a concentration of 50 μM and the positive control are added to a 384-well plate at room temperature, and each sample is provided with three parallel wells, and then 10 μl of STK Substrate 3 Working Solution, 5 μl of AKT1/PKBα Working Solution, 10 μl of ATP Working Solution are added to each sample respectively, the mixtures are slightly vibrated and shaked for a few minutes. Reaction is carried out just after the adding 10 μl of ATP Working Solution, from this time, reacting for 1 h. After 1 h, 5 μl of STK Stop Mix and 5 μl of STK Antibody Mix are added to each sample respectively to stop the reaction. The samples are maintained for 4 h at room temperature after adding is completed, the polarization values of samples are determined by fluorescence polarization of Microplate Reader (Detection of the signals is valid within 24 h), the inhibitory rate of compounds against the enzyme is calculated by polarization value, and thereby IC50 is calculated.
Experiment is set up four control groups at the same time, which are Buffer Control Wells, Tracer Control Wells, No Enzyme Wells and blank control of dimethyl sulfoxide, respectively. Thus obtained data are used to calculate the inhibitory rate (the preparation methods of above various solution required for determining the activities of compounds against enzyme refer to the specification of the kit of AKT1/PKBα KinEASE™ FP Fluorescein Green Assay Catalog #32-021).

[2] = test system: Human ovarian cancer cell strain OVCAR-8; test: MTT assay, inhibition of tumor cell growth in vitro, 72 h; format: cell-based; settings: Homo sapiens, OVCAR-8, MTT, read-out: Antitumor proliferative activities of tumor cell (IC50, μM) OVCAR-8
Experimental: (§1) First, inhibitory activity on tumor proliferation in vitro is determined and the structure activity relationship is preliminarily studied, in which different solid tumor cell strains are selected for determining the antitumor activities in vitro of the synthesized compounds.
(§2) Cell strains: Human ovarian cancer cell strain (OVCAR8), colon adenocarcinoma cell strain (HCT-116)
Medium: OVCAR8: RPMI 1640+Fetal Bovine Serum
(§3) Preparing method of medicines: Dissolving the medicine in DMSO to make a 50 mM stock solution, and diluting it according to a certain ratio to obtain 5 different concentrations.
(§4) Two selected tumor cells OVCAR8 and HCT-116 are incubated at 37° C. in a 5% CO2 incubator, which are subcultured when cells grow up to a density of 70˜90% (adherent cells are subcultured after digesting by Duck's EDTA) for later experiments.
(§5) Compounds are dissolved and diluted by dimethyl sulfoxide (DMSO), and tumor cells OVCAR8 and HCT-116 are seeded in a 96-well plate at a density of 4000 cells/200 μl/well, 1 μl of the compounds are added to each well with the final concentration of 50 μM, 10 μM, 2 μM, 0.4 μM and 0.08 μM, which is incubated for 72 h at 37° C. in a 5% CO2 incubator with DMSO (1%) as blank control.
(§6) The calculating formula of cell inhibitory rate is: cell inhibitory rate %=(the OD value of the control group−the OD value of the medication group)/the OD value of the control group×100%, the half maximal inhibitory concentration (IC50) is obtained by Bliss method.

[3] = test system: human colon cancer cell strain HCT-116; test: as above; format: cell-based; settings: Homo sapiens, HCT-116, MTT, read-out: Antitumor proliferative activities of tumor cell (IC50, μM) HCT-116 (converted)
Experimental: as §1, §2
HCT-116: RPMI 1640+Fetal Bovine Serum
as §3, §4, §5, §6

T1 sequence (P31749 whole entry): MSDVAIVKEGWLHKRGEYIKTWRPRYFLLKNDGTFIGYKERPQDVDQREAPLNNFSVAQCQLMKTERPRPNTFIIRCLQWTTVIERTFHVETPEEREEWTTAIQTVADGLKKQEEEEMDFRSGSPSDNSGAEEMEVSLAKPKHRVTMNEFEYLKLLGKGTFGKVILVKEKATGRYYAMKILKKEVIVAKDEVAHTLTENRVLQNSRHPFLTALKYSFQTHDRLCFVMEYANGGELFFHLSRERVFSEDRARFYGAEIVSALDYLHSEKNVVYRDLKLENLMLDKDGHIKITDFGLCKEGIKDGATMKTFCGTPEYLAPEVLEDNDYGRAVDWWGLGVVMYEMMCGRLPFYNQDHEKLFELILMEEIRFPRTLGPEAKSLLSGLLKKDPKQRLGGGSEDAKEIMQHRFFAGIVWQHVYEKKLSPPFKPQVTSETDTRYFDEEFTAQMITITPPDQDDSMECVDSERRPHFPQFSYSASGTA

Structure (SMILES)	IC50 [1]	IC50 [2]	IC50 [3]
Cn1ncc(C(=O)O)c1-c1ccc(C(=O)N[C@@H]2CNCC[C@H]2c2cccc(F)c2)s1 [Compound 142]	2 nM	1.62 µM	3.09 µM
Cn1ncc(Cl)c1-c1cnc(C(=O)N[C@@H]2CNCC[C@H]2c2ccc(F)c(F)c2)c(F)c1 [Compound 97, 5-(4-chloro-1-methyl-1H-pyrazol-5-yl)-N-((3S,4S)-4-(3,4-difluorophenyl)piperidin-3-yl)-3-fluoropicolinamide]	8 nM	4.89 µM	4.14 µM
Cn1nccc1-c1csc(C(=O)N[C@H]2CNCC[C@@H]2c2ccc(Cl)cc2)c1 (racemic) [Compound 32, 4-(1-methyl-1H-pyrazol-5-yl)-N-(3,4-trans-4-(4-chlorphenyl)piperidin-3-yl) thiophene-2-formamide]	123 nM	1.47 µM	18.1 µM
Cc1cccc([C@H]2CCNC[C@@H]2NC(=O)c2cc(C)c(-c3c(Br)cnn3C)cc2C)c1 (racemic) [Compound 57, 2,5-dimethyl-4-(4-bromo-1-methyl-1H-pyrazol-5-yl)-N-(3,4-trans-4-(3-methylphenyl)piperidin-3-yl)phenyl formamide]	82 nM	12.9 µM	2.5 µM
Cn1ncc(Cl)c1-c1cc(C(=O)N[C@H]2CNCC[C@@H]2c2ccc(Cl)c(Cl)c2)oc1Cl [Compound 39, 5-chloro-4-(4-chloro-1-methyl-1H-pyrazol-5-yl)-N-((3R,4R)-4-(3,4-dichlorophenyl)piperidin-3-yl)furan-2-formamide]	58 nM	14.3 µM	3.45 µM
Cn1ncc(Cl)c1-c1ccc(C(=O)N[C@@H]2CNCC[C@H]2c2cccc(F)c2)s1 [Compound 138, 5-(4-chloro-1-methyl-1H-pyrazol-5-yl)-N-((3S,4S)-4-(3-fluorophenyl)piperidin-3-yl)thiophene-2-formamide]	1 nM	3.01 µM	0.56 µM
COc1cc(C(=O)N[C@@H]2CNCC[C@H]2c2cccc(F)c2)ccc1-c1c(Cl)cnn1C [Compound 83, 4-(4-chloro-1-methyl-1H-pyrazol-5-yl)-N-((3S,4S)-4-(3-fluorophenyl)piperidin-3-yl)-3-methoxybenzamide]	10 nM	1.32 µM	4.09 µM
Cc1[nH]c(C(=O)N[C@H]2CNCC[C@@H]2c2ccncc2)cc1-c1c(Br)cnn1C (racemic) [Compound 6, 5-methyl-4-(4-bromo-1-methyl-1H-pyrazol-5-yl)-N-(3,4-trans-4-(pyridin-4-yl)piperidin-3-yl)-1H-pyrrole-2-formamide]	32 nM	3.68 µM	10.8 µM
Cn1ncc(Cl)c1-c1cc(C(=O)N[C@@H]2CNC(CCn3cncn3)C[C@H]2c2ccc(Cl)c(Cl)c2)oc1Cl (stereo partly drawn) [Compound 122, N-((3S,4S)-6-(2-(1H-1,2,4-triazol-1-yl)ethyl)-4-(3,4-dichlorophenyl)piperidin-3-yl)-5-chloro-4-(4-chloro-1-methyl-1H-pyrazol-5-yl)furan-2-formamide]	2 nM	0.43 µM	1.02 µM
Cn1ncc(Cl)c1-c1ccc(C(=O)N[C@@H]2CNCC[C@H]2c2c[nH]c3ccccc23)cc1Cl [Compound 89, N-((3S,4S)-4-(1H-indol-3-yl)piperidin-3-yl)-3-chloro-4-(4-chloro-1-methyl-1H-pyrazol-5-yl)benzamide]	11 nM	5.69 µM	1.02 µM
CCc1cc(C(=O)N[C@@H]2CNCC[C@H]2c2ccc(C(F)(F)F)cc2)cnc1-c1c(Br)cnn1C [Compound 64, 5-ethyl-6-(4-bromo-1-methyl-1H-pyrazol-5-yl)-N-((3S,4S)-4-(4-trifluoromethylphenyl)piperidin-3-yl)pyridinyl-3-formamide]	256 nM	1.62 µM	22.6 µM
Cn1ncnc1-c1cc(C(=O)N[C@H]2CNCC[C@@H]2c2ccc(C(F)(F)F)cc2)oc1Br (racemic) [Compound 3, 5-bromo-4-(1-methyl-1H-1,2,4-triazol-5-yl)-N-(3,4-trans-4-(4-trifluoromethylphenyl)piperidin-3-yl)furan-2-formamide]	43 nM	13 µM	8.9 µM
Cn1ncc(Cl)c1-c1cc(C(=O)N[C@@H]2CNC(CCN3CCOCC3)C[C@H]2c2ccc(Cl)c(Cl)c2)oc1Cl (stereo partly drawn) [Compound 109, 5-chloro-4-(4-chloro-1-methyl-1H-pyrazol-5-yl)-N-((3S,4S)-4-(3,4-dichlorophenyl)-6-(2-(morpholin-1-yl)ethyl)piperidin-3-yl)furan-2-formamide]	9 nM	1.3 µM	0.78 µM

Now from value to molecule:

IC50 [1]	IC50 [2]	IC50 [3]	Structure (SMILES)
0.7 nM	0.04 µM	0.08 µM	CC(O)c1cnn(C)c1-c1ccc(C(=O)N[C@@H]2CNCC[C@H]2c2cccc(F)c2)s1 (stereo partly drawn) [Compound 143, N-((3S, 4S)-4-(3-fluorophenyl)piperidin-3-yl)-5-(4-(1-hydroxyethyl)-1-methyl-1H-pyrazol-5-yl)thiophene-2-formamide]
0.6 nM	1.41 µM	2.82 µM	CNC(=O)CC1C[C@@H](c2ccc(F)c(F)c2)[C@H](NC(=O)c2ccc(-c3c(Cl)cnn3C)s2)CN1 (stereo partly drawn) [Compound 152, 5-(4-chloro-1-methyl-1H-pyrazol-5-yl)-N-((3S,4S)-4-(3,4-difluorophenyl)-6-(2-(methylamido)-2-oxoethyl)piperidin-3-yl)thiophene-2-formamide]
342 nM	3.58 µM	13.8 µM	Cn1ncc(Cl)c1-c1cc(C(=O)N[C@H]2CNCC[C@@H]2c2ccc(C(F)(F)F)cc2)oc1Cl [Compound 43, 5-chloro-4-(4-chloro-1-methyl-1H-pyrazol-5-yl)-N-((3R,4R)-4-(4-trifluoromethylphenyl)piperidin-3-yl)furan-2-formamide]
108 nM	7.89 µM	12.2 µM	Cn1ncc(Br)c1-c1coc(C(=O)N[C@H]2CNCC[C@@H]2c2ccccc2)c1 (racemic) [Compound 22, 4-(4-bromo-1-methyl-1H-pyrazol-5-yl)-N-(3,4-trans-4-phenylpiperidin-3-yl) furan-2-formamide]
0.8 nM	4.69 µM	0.92 µM	CC(=O)OCCC1C[C@@H](c2ccc(F)c(F)c2)[C@H](NC(=O)c2cc(-c3c(Cl)cnn3C)c(Cl)o2)CN1 (stereo partly drawn) [Compound 131, 2-((4S,5S)-5-(5-chloro-4-(4-chloro-1-methyl-1H-pyrazol-5-yl)furan-2-formamido)-4-(3,4-difluorophenyl)piperidin-2-yl)ethylacetate]
8 nM	0.34 µM	0.8 µM	Cc1cc(C(=O)N[C@@H]2CNC(CCN3CCCCC3)C[C@H]2c2ccc(F)c(F)c2)ccc1-c1c(Cl)cnn1C (stereo partly drawn) [Compound 102, 4-(4-chloro-1-methyl-1H-pyrazol-5-yl)-N-((3S,4S)-4-(3,4-difluorophenyl)-6-(2-(piperidin-1-yl)ethyl)piperidin-3-yl)-3-methylbenzamide]
0.4 nM	0.51 µM	0.78 µM	Cn1ncc(Cl)c1-c1cc(C(=O)N[C@@H]2CNC(CCO)C[C@H]2c2ccc(F)c(F)c2)oc1Cl (stereo partly drawn) [Compound 129, 5-chloro-4-(4-chloro-1-methyl-1H-pyrazol-5-yl)-N-((3S,4S)-4-(3,4-difluorophenyl)-6-(2-hydroxyethyl)piperidin-3-yl)furan-2-formamide]

— patent publication US10233180B2, “Substituted nitrogen-containing heterocyclic derivatives, pharmaceutical compositions comprising the same and applications of antitumor thereof” (ZHEJIANG UNIVERSITY, priority 2014, dated 2019)
